{"source": "patent US4608365A", "about": "“Treatment of neurologic functions” (priority 1984, dated 1986)", "key": {"ALS patients [1]": {"test_system": "ALS patients", "conditions": "human, in vivo", "method": "Five ALS patients (men, women, duration of disease one, one, three and one-half, four and three years, respectively) were given TRH as a continuous intravenous infusion. […] For about one-fifth of the days, the patients were given saline placebo.\nIt should be noted that the TRH administered in Example I was infused at a rate of up to 200 mg. over a twenty-four hour period. In terms of presence in the body at any one time, this amounted to an infusion rate of about 0.14 mg/minute ([…] body weight based upon the average patient weight of 70 kg). Accordingly, and in view of the significant results shown in Examples II-VIII, it appears that an elevated initial dose and consequently a blood level peak, providing a pulse-effect, is required each time TRH is given. Specifically, in Example IV, intravenous infusion at one milligram per minute (over seven times the infusion rate in Example I) produced an improvement of strength in several muscle functions. […] In Example IV, an acute increase in strength occurred at 4.7 mg/minute intravenously.\nThere were several control aspects of the TRH studies. […] The patients given subcutaneous TRH had treatments interspersed with saline placebo injections. […] The time course of response was not known before the study and, in fact, it was expected that the onset would be later and the duration of response longer than was actually found. […]"}, "ALS patients [2]": {"test_system": "ALS patients", "type": "in vivo, human", "method": "Three fasting ALS patients (men aged 37 and 60 and a person; duration of disease three-quarters of a year, one and three years, respectively) were each given an intravenous infusion of TRH in which the dose increased in seven steps from 0.5 to 19 mg/minute over sixty to eighty minutes (total dose 320, 432 and 500 mg). The two men had major spasticity from upper motor neuron involvement and weakness from lower motor neuron involvement. […] Shivering, tachypnoea and sweating increased further with rising dosage, and in the two men the infusion was stopped at 19 mg/minute, after 320 and 432 mg total, because of tachypnoea (40-45 breaths per minute) and vigorous shivering. There also was a transient increase in pulse rate (10-15 beats per minute). The men experienced sensations of coolness or warmth of the anterior lower chest and abdomen. One of the men felt \"bad all over\" at 19 mg/minute. […] At that time, a spinal lumbar puncture was performed to obtain cerebrospinal fluid for analysis as hereinafter described. The patient had no spasticity, only weakness from lower motor neuron involvement. […] Their infusion was stopped when the drug supply was depleted (at 500 mg total dose). The dosage was not stopped because of side-effects of TRH. […] Experience with the additional patients confirmed the observation that there is more shivering side-effect in the patients with more spasticity.\n(§1) There were several control aspects of the TRH studies. […] The patients given subcutaneous TRH had treatments interspersed with saline placebo injections. […] The time course of response was not known before the study and, in fact, it was expected that the onset would be later and the duration of response longer than was actually found. Different patients responded to different doses of TRH, and the sex difference in response (woman apparently less responsive) was not expected. […] There were three observers, one unaware of the infusion status. In addition, clinical examinations of all patients of Examples III-VII were videotaped and later reviewed by several observers."}, "[3]": {"test_system": "non-ALS person with chronic juvenile proximal spinal muscular atrophy", "type": "in vivo, human"}, "ALS patients [4]": {"test_system": "ALS patients", "type": "in vivo, human", "method": "As shown in Examples I-V, intravenous infusion of thyrotropin-releasing hormone improves weakness and spasticity from lower motor neuron and upper motor neuron involvement in patients with amyotrophic lateral sclerosis and proximal spinal muscular atrophy. In an additional study, forty-one ALS patients were treated with 461 days of subcutaneous TRH administered 75-150 mg once daily or 75 mg twice daily. The subcutaneous doses were sometimes administered by patients or spouses. Included were all forms of ALS, and all patients were videotaped pre- and post-treatment. […] Saline injections produced no responses. The previously-noted lesser benefit and side-effects in females was less evident.\nBenefit and side-effects of TRH administered subcutaneously were qualitatively and quantitatively similar to those of intravenous TRH described in Examples III and IV. […] Response times were somewhat different.\nas §1\nIn each of the foregoing Examples, the TRH was administered in a normal saline solution containing 100 mg/ml of TRH. The pH of the solution was not adjusted. This particular carrier and strength was selected for its ready availability, the convenience in calculating dosages administered and its similarity to the placebo solution, and additional carriers may be employed as desired. Timed-release carriers would be particularly advantageous, and are within the scope of the invention.", "remark": "listed apart in the source"}, "non-ALS patients": {"test_system": "non-ALS patients", "assay": "Intravenous and subcutaneous TRH in non-ALS patients with lower or upper motor neuron abnormality (Example VII)", "type": "in vivo, human", "conditions": "i.v. and s.c., seven non-ALS patients", "description": "The dosage, benefits and side-effects were essentially similar to those described in Examples II, V and VI."}, "[5]": {"test_system": "amyotrophic lateral sclerosis patients", "assay": "Effect of TRH on chronic joint pain in ALS patients (Example VIII)", "type": "in vivo, human", "conditions": "after TRH treatment", "description": "In untreated amyotrophic lateral sclerosis patients, especially in more advanced stages of the disease, aching of joints is common, (e.g., in a \"frozen shoulder\" or painful hip). Often, the pain is so severe as to impair sleep. […] The reduction of pain was clearly appreciated when the patients were awake, and it also allowed much more restful nights without their being awakened frequently by pain. […] A logical extension of this observation is that pain of many causes, including other forms of arthritic pain, might be lessened by TRH, or an analog, active derivative or analog of an active derivative of TRH."}, "ALS patients [6]": {"test_system": "ALS patients", "assay": "Transient autorefractory effect, subcutaneous TRH in ALS patients", "type": "in vivo, human", "description": "Possible mechanisms for autorefractoriness, presumably involving the lower motor neuron soma/dendrites and/or neurons afferent thereto, include: […] In normal animals, repeated micropipetting of TRH near lower motor neurons has been shown by others to cause a similar prolonged unresponsiveness. The mechanism of autorefractoriness may be, in general, related to the excellent clinical anti-spasticity benefits of TRH, and non-excitatory TRH analogs may be employed within the spirit of the invention to enhance this type of clinical improvement."}}, "data": [{"smiles": "NC(=O)[C@@H]1CCCN1C(=O)[C@H](Cc1cnc[nH]1)NC(=O)[C@@H]1CCC(=O)N1", "note": "[TRH, L-pyroglutamyl-L-histidyl-L-prolinamide]", "values": [{"measurement": "transient rise in serum aminotransferases", "setting": "ALS patients [1]", "result": "has not been found"}, {"measurement": "effectiveness of low intravenous dose", "setting": "ALS patients [2]; 0.5 mg/minute for twenty minutes, Examples II and III", "result": "not found to be effective"}, {"measurement": "dose at which shivering, tachypnoea and sweating began", "setting": "ALS patients [2]; human, in vivo, iv", "result": 8, "unit": "mg/min"}, {"measurement": "transient increase in pulse rate", "setting": "ALS patients [2]; human, in vivo, iv", "result": "10-15 beats per minute"}, {"measurement": "dose at which movement and strength of legs, arms and tongue began to improve, with decreased spasticity", "setting": "ALS patients [2]; i.v. infusion increased in seven steps 0.5 to 19 mg/minute, two men", "result": "2 to 4", "unit": "mg/min"}, {"measurement": "persistence of benefits and side effects after infusion", "setting": "ALS patients [2]; i.v. stepwise infusion", "result": "no longer obvious thirty minutes after the infusion ended"}, {"measurement": "response of patient with no spasticity, only lower motor neuron weakness", "setting": "ALS patients [2]; i.v., 500 mg total dose", "result": "only slight subjective improvement in strength without obvious objective improvement"}, {"measurement": "muscle strength", "setting": "[3]; 1-8 mg/minute i.v., 500 mg total, several muscle functions", "result": "slight to moderate improvement of strength"}, {"measurement": "sensitivity to TRH relative to the men", "setting": "[3]; i.v.", "result": "one-fourth to one-eighth as sensitive"}, {"measurement": "intravenous rate at which an acute increase in strength occurred", "setting": "[3]; printed as Example IV (summary)", "result": 4.7, "unit": "mg/min"}, {"measurement": "improvement in neurologic deficits from hypofunction of lower and upper motor neurons", "setting": "ALS patients [4]; ALS and other patients, therapeutic amounts (summary of all studies)", "result": "moderate to excellent improvement"}, {"measurement": "muscle strength in retreated female non-responder of Example II", "setting": "ALS patients [4]; a few months later, evaluated in more detail", "result": "slight but definite improvement of muscle strength"}, {"measurement": "effect on mood, alertness, excitation, appetite or sleep", "setting": "ALS patients [4]; human, in vivo", "result": "no noticeable effect"}, {"measurement": "new side effects", "setting": "ALS patients [4]; human, in vivo", "result": "very transient taste noted within a few minutes; asthmatic phenomena lasting about five minutes during maximal shivering in two patients with a history of asthma"}, {"measurement": "strength and head tremor in one patient with hereditary ALS", "setting": "ALS patients [4]; human, in vivo", "result": "improvement in strength and also improvement in a co-existing head tremor"}, {"measurement": "transient shivering, onset and end", "setting": "ALS patients [4]; human, in vivo, sc", "result": "beginning at three to ten minutes and lasting until thirty to sixty minutes"}, {"measurement": "neuromuscular stamina", "setting": "ALS patients [4]; s.c.", "result": "clearly increased"}, {"measurement": "painful muscle cramps, spasms, spontaneous clonus and stiffness", "setting": "ALS patients [4]; s.c.", "result": "eliminated or lessened for several days in all patients having them"}, {"measurement": "painful spontaneous flexor withdrawal reflexes", "setting": "ALS patients [4]; s.c.", "result": "remained eliminated for at least twelve days in some instances"}, {"measurement": "swallowing", "setting": "ALS patients [4]; s.c.", "result": "increased, eliminating choking on food and saliva accumulation in the mouth"}, {"measurement": "time benefits in strength, cramps, spasticity and clonus often endured undiminished", "setting": "ALS patients [4]; s.c.", "result": "twenty-four hours"}, {"measurement": "time to maximal increased strength", "setting": "ALS patients [4]; s.c.", "result": "one-and-a-half to two minutes"}, {"measurement": "improvement", "setting": "ALS patients [4]; s.c. 150 mg once daily or 75 mg twice daily (summary)", "result": "similarly striking improvement"}, {"measurement": "response", "setting": "ALS patients [4]; s.c. 75-150 mg once daily or 75 mg twice daily, forty-one ALS patients, 461 days", "result": "beneficial responses"}, {"measurement": "stair climbing", "setting": "ALS patients [4]; s.c., many patients", "result": "eleven flights of stairs (compared to two with difficulty before TRH)"}, {"measurement": "aching of shoulder and hip joints", "setting": "ALS patients [4]; s.c., severe ALS", "result": "temporarily reduced or abolished for at least one to three days"}, {"measurement": "recovery of lost abilities", "setting": "ALS patients [4]; s.c., some patients", "result": "regained abilities that had been lost for six to twelve months"}, {"measurement": "spasticity, clonus and muscle cramps", "setting": "ALS patients [4]; s.c., when shivering diminished or one to three hours thereafter", "result": "improved from their before-treatment status or completely abolished or absent"}, {"measurement": "subcutaneous dose required per body weight", "setting": "ALS patients [4]; single injection", "result": "≥ 0.71 mg/kg of body weight"}, {"measurement": "subcutaneous dose required", "setting": "ALS patients [4]; single injection once, or similar amount twice-a-day", "result": "at least 50 mg"}, {"measurement": "benefit", "setting": "non-ALS patients", "result": "markedly benefited"}, {"measurement": "arthritic (joint) pain", "setting": "[5]", "result": "striking improvement"}, {"measurement": "duration of pain improvement", "setting": "[5]", "result": "as long as one to four days"}, {"measurement": "partial autorefractory state, onset and duration", "setting": "ALS patients [6]; 125-150 mg s.c., first day", "result": "began by four to ten minutes and lasted, with fluctuations, two to three hours"}, {"measurement": "time to increased strength", "setting": "ALS patients [6]; 125-150 mg s.c., first day, twenty ALS patients", "result": "within one to two minutes"}, {"measurement": "effect of second dose at twenty-four hours", "setting": "ALS patients [6]; another 125-150 mg s.c.", "result": "marked weakness within two minutes"}, {"measurement": "drug resistance on repeated treatment", "setting": "ALS patients [6]; i.v. or s.c., as long as eight months", "result": "no diminution of beneficial response attributable to drug resistance"}]}]}
